Values quoted from earlier work as cited in paper PMC3325405 (Amino Acids, 2011).

Target: Klebsiella aerogenes enzyme (urease)
Details: read-out: K i, Klebsiella aerogenes urease; ref Todd 1989

CC(=O)NO [AHA, acetohydroxamic acid]
Ki: 2600 nM
